Data published in US4183930A, “Amino derivatives of pyrazolo [1,5-a]s-triazine, and their therapeutic applications” (Aron S.A., priority 1978, dated 1980).
Like-named read-outs stand apart in the source and are kept apart here.

How the values were obtained:
[1] = system: isolated trachea of guinea-pigs; assay: Dilatation of the isolated trachea of guinea-pigs (Castillo & De Beer); parameters: species or system guinea-pig; details: 10 γ/ml, tensile load 500 mg; for % dilatation (tensile variation with respect to the activity of theophylline taken as 100%): relative to theophylline = 100%
Protocol: (a) Action on the isolated trachea of guinea-pigs The trachea is prepared according to the technique disclosed by Castillo & De Beer (J. Pharmacol. Exper. […] The organ is submitted to a tensile load of 500 mg.

[2] = system: bronchospasm induced by acetylcholine, serotonine and histamine; assay: Prevention of bronchospasm in anesthetized guinea-pigs (Konzett and Rossler); format: in vivo, guinea-pig; details: Cavia porcellus, iv, spasm by acetylcholine (10-20 γ/kg i.v.), serotonine (5 γ/kg i.v.) and histamine (10 γ/kg i.v.), read-out: ED100 (dosage providing 100% inhibition of the spasm)
[3] = system: anaphylactic shock in mice; assay: Protective effect against anaphylactic shock in mice; format: in vivo, mouse; details: 100 mg/kg i.p., 30 min prior to albumin; for responders at 100 mg/kg: Mus musculus, ip, 0.5 h, read-out: % surviving animals; for Number of dead animals: dead/total
Protocol: (a) Protective effect against anaphylactic shock in mice
The protective effect against anaphylactic shock was investigated according to the technique disclosed by Duhault and co-workers (Arzneim. Forschung, 1972, II, 1947). Four weeks after sensitization to bovine albumin, intravenous injection of 0.3 mg bovine albumin in mice causes a fatal anaphylactic shock within the 30 minutes which follow said injection.
The protective effect of compounds of the formula (I), on intraperitoneal administration, at a dosage of 100 mg/kg 30 minutes prior to albumin injection is illustrated in Table III.

[4] = system: passive cutaneous anaphylaxis in rats; assay: Protective effect against passive cutaneous anaphylaxis (PCA) in rats; format: in vivo; details: Rattus norvegicus, ip, 100 mg/kg i.p., 30 min prior to ovalbumin injection, read-out: % Protection (with respect to the controls)
Protocol: (b) Protective effect against passive cutaneous anaphylaxis in rats
The protective effect against passive cutaneous anaphylaxis (PCA) in rats were investigated according to the technique disclosed by Rosenthale and co-workers (J. Pharm. Exp. Therap. 1976, 197, 725-733). Antisera were prepared by sub-cutaneous injection of 1 mg/ml ovalbumin and by intraperitoneal injection of b 30×10^9 /ml Bacillus pertussis. The PCA reaction was visualized on intravenous injection of antigen (ovalbumin) and Evans Blue in rats which had been intradermally administered the antiserum (4 injections in the shaved back of each rat) 72 hours previously. The protective effect obtained on intraperitoneal administration of the compounds at a dosage of 100 mg/kg 30 minutes prior to ovalbumin injection is set forth in Table IV.
To determine the percent protection, the length of the longest diameter o
the spot and the length of the diameter perpendicular thereto are
measured. The product is expressed as mm^2.

rats = assay: Chronic toxicity in rats, orally, 3 months; format: in vivo, rat; details: 3 months, 25, 100 and 300 mg/kg
humans = assay: First clinical tests in humans; format: in vivo, human
From the text: The first clinical tests provided the following data:
(2) In clinical pharmacology, functional respiratory exploration determinations provided the same bronchodilator effect found in animals.

mice [5] = details: mouse, in vivo
in vivo = details: mouse
dogs = assay: Chronic toxicity in dogs, 1 month; format: in vivo, dog; details: 20 and 160 mg/kg
mice [6] = assay: Acute toxicity in mice; details: dosage 1000 mg/kg
[7] = Series 2 (controls 50% surviving)
[8] = Series 3 (controls 25% surviving)
[9] = Series 4 (controls 30% surviving)

SMILES	Tensile variation [1] [mg]	% dilatation (tensile variation with respect to the activity of theophylline taken as 100%) [1] [%]	ED100 [2] [mg/kg]	inhibition in vivo at 100 mg/kg [4] [%]	LD50 (in vivo; po) [mg/kg]	other results
Nc1nc(N)n2nccc2n1 [Example 1, 2,4-Diamino-pyrazolo[1,5-a]s.triazine]	-60	67	20 to 25	42	1250	responders at 100 mg/kg ([3]; Series 1 (controls 20% surviving)): 50%; Number of dead animals ([3]; mice sensitized to bovine albumin, Series 1 (controls 16/20)): 10/20; alteration of the biological constants / histological injury of the various organs (rats): neither alteration of the biological constants nor histological injury of the various organs; tolerance in humans (humans): good tolerance; Number of dead animals at the dosage indicated, i.v. (mice [5]): no
Cc1cc2nc(N)nc(N)n2n1 [Example 2, 2,4-Diamino-7-methyl-pyrazolo[1,5-a]s.triazine]	-100	111	15 to 20	56	900	Number of dead animals ([3]; Series 2 (controls 10/20)): 2/21; responders at 100 mg/kg [3, 7]: 90.5%; alteration of the biological constants / histological injury of the various organs (rats): neither alteration of the biological constants nor histological injury of the various organs; alteration of the biological constants / histological injury of the various organs (dogs): neither alteration of the biological constants nor histological injury of the various organs; tolerance in humans (humans): good tolerance; LD50 (in vivo; iv): 380 mg/kg
CCc1nn2c(N)nc(N)nc2c1C [Example 3, 2,4-Diamino-7-ethyl-8-methyl-pyrazolo[1,5-a]s.triazine]	-100	111		92	200	Number of dead animals ([3]; Series 3 (controls 15/20)): 6/19; responders at 100 mg/kg [3, 8]: 68.5%
CNc1nc(N)nc2cc(C)nn12 [Example 4, 2-Amino-4-methylamino-7-methyl-pyrazolo[1,5-a]s.triazine]	-153	170		92		Number of dead animals ([3]; Series 3 (controls 15/20)): 9/20; responders at 100 mg/kg [3, 8]: 55%; alteration of the biological constants / histological injury of the various organs (rats): neither alteration of the biological constants nor histological injury of the various organs; tolerance in humans (humans): good tolerance; LD50 p.o. (mice [5]; po): 1000 mg/kg; LD50 (in vivo; iv): 300 mg/kg
CNc1nc(NC)n2nc(C)cc2n1 [Example 5, 2,4-Bis-(methylamino)-7-methyl-pyrazolo[1,5-a]s.triazine]	-207	230	10	83	300	
Cc1cc2nc(N)nc(NC(C)C)n2n1 [Example 6, 2-amino-4-isopropylamino-7-methyl-pyrazolo[1,5-a]s.triazine methane sulfonate]	-200	220	5			Number of dead animals ([3]; Series 3 (controls 15/20)): 12/20; responders at 100 mg/kg [3, 8]: 40%; Number of dead animals at the dosage indicated, p.o. (mice [5]): one
C=CCNc1nc(N)nc2cc(C)nn12 [Example 7, 2-Amino-4-allylamino-7-methyl-pyrazolo[1,5-a]s.triazine]	-180	200	5	71	1200	Number of dead animals ([3]; Series 4 (controls 14/20)): 2/20; responders at 100 mg/kg [3, 9]: 90%; Number of dead animals at the dosage indicated, i.v. (mice [5]): no
Cc1cc2nc(N)nc(NCC3CCCO3)n2n1 (centres unmarked) [Example 8, 2-Amino-4-tetrahydrofurfurylamino-7-methyl-pyrazolo[1,5-a]s.triazine]	-72	80		54		Number of dead animals ([3]; Series 4 (controls 14/20)): 6/21; responders at 100 mg/kg [3, 9]: 71%; Number of dead animals at the dosage indicated, p.o. (mice [5]): two
CCCNc1nc(N)nc2cc(C)nn12 [Example 9]				69		Number of dead animals at the dosage indicated, p.o. (mice [6]): one
Cc1cc2nc(N)nc(NC(C)(C)C)n2n1 [Example 10]				50		Number of dead animals at the dosage indicated, p.o. (mice [6]): one
C=CCNc1nc(N)nc2ccnn12 [Example 11]						Number of dead animals at the dosage indicated, p.o. (mice [6]): one
Cn1c(=O)c2[nH]cnc2n(C)c1=O [Theophylline, reference compound]	-90		20 to 25	72		Number of dead animals ([3]; Series 2 (controls 10/20)): 4/20; responders at 100 mg/kg [3, 7]: 80%
